Values of other authors, collected in patent US6599496B2, “Endoscopy tissue stain” (Chek-Med Systems, Inc., priority 1999, dated 2003).

System: colon
Conditions: Hammond et al.

Which “permanence of the marking of lesions of the colon” value does the source give for `CC1(C)C(/C=C/C=C/C=C/C=C2\N(CCCCS(=O)(=O)O)c3ccc4ccccc4c3C2(C)C)=[N+](CCCCS(=O)(=O)[O-])c2ccc3ccccc3c21` [Indocyanine green] here?
The value was “does not have long term permanence”.
